In ChEMBL document CHEMBL4402583, “Rational Substitution of ε-Lysine for α-Lysine Enhances the Cell and Membrane Selectivity of Pore-Forming Melittin” (J Med Chem, 2020):
Values after ≈ are worked out from the molar mass of the structure shown. Active and inactive are the calls of the source. The rule behind the calls is not given here.

Legend:
[1] = system: Lipid bilayer; assay: Binding affinity to zwitterionic DOPC/cholesterol large unilamellar vesicles assessed as transformation of peptide secondary structure to alpha-helical conformation by CD spectropolarimetry
[2] = system: Candida albicans; assay: Antifungal activity against Candida albicans assessed as reduction in fungal growth incubated for 24 hrs by broth microdilution method; type: functional
[3] = system: Lipid bilayer; assay: Induction of pore formation in zwitterionic DOPC/cholesterol large unilamellar vesicles assessed as calcein release at 0.39 to 50 uM measured for 60 mins by fluorescence based assay
[4] = system: NHDF; assay: Cytotoxicity against HDF cells at 31.25 ug/ml incubated for 24 hrs by Alexa Fluor […] phalloidin-FITC/Hoescht dye staining based fluorescence microscopic analysis; type: cell-based; conditions: human
[5] = system: Lipid bilayer; assay: Induction of pore formation in negatively charged DOPE/DOPG large unilamellar vesicles assessed as calcein release at 0.39 to 50 uM measured for 60 mins by fluorescence based assay
[6] = system: Staphylococcus aureus; assay: Antibacterial activity against Staphylococcus aureus assessed as reduction in bacterial growth incubated for 24 hrs by broth microdilution method; type: functional
[7] = Cytotoxicity against HDF cells assessed as minimum cytotoxic concentration incubated for 24 hrs by Alexa Fluor […] phalloidin-FITC/Hoescht dye staining based fluorescence microscopic analysis; type: cell-based; conditions: human, HDF cells (NHDF, human dermal fibroblasts)
[8] = system: Pseudomonas aeruginosa; assay: Antibacterial activity against Pseudomonas aeruginosa assessed as reduction in bacterial growth incubated for 24 hrs by broth microdilution method; type: functional
[9] = system: Lipid bilayer; assay: Induction of pore formation in negatively charged DOPE/DOPG large unilamellar vesicles assessed as ratio of peptide to lipid molar ratio that induces 50% calcein leakage measured for 60 mins by calcein dequenching based fluorescence based assay
[10] = Cytotoxicity against HDF cells assessed as minimum cytotoxic concentration incubated for 24 hrs by MTS assay; type: cell-based; conditions: human, HDF cells (NHDF, human dermal fibroblasts)
[11] = system: NHDF; assay: Cytotoxicity against HDF cells assessed as reduction in metabolic activity at 32 ug/ml incubated for 24 hrs by MTS assay; type: ADME, cell-based; conditions: human
[12] = system: Acinetobacter baumannii; assay: Resistance index, ratio of MIC for Acinetobacter baumannii ATCC 19606 measured after 4 serial passages by broth microdilution method to MIC for Acinetobacter baumannii ATCC 19606 incubated for 24 hrs by broth microdilution method; type: functional, organism-based; conditions: ATCC 19606 = CIP 70.34 = JCM 6841
[13] = system: Staphylococcus aureus; assay: In vivo antibacterial activity against Staphylococcus aureus ATCC 29213 infected in C57BL/6 mouse assessed as reduction in bacterial burden by measuring log10 CFU/cornea at 0.3% administered topically as two times on day 1, four times on day 2 and two times on day 3 measured at 48 hrs post-final dose by 10 fold serial dilution method (reference value: 6.5 +/- 0.7 log10CFU); type: functional

## CC[C@H](C)[C@H](NC(=O)CN)C(=O)NCC(=O)N[C@@H](C)C(=O)N[C@H](C(=O)N[C@@H](CC(C)C)C(=O)N[C@@H](CCCCN)C(=O)N[C@H](C(=O)N[C@@H](CC(C)C)C(=O)N[C@H](C(=O)N[C@H](C(=O)NCC(=O)N[C@@H](CC(C)C)C(=O)N1CCC[C@H]1C(=O)N[C@@H](C)C(=O)N[C@@H](CC(C)C)C(=O)N[C@H](C(=O)N[C@@H](CO)C(=O)N[C@@H](Cc1c[nH]c2ccccc12)C(=O)N[C@H](C(=O)N[C@@H](CCCCN)C(=O)N[C@@H](CCCNC(=N)N)C(=O)NCCC[C@@H](CN)C(=O)N[C@@H](CCCNC(=N)N)C(=O)N[C@@H](CCC(N)=O)C(=O)N[C@@H](CCC(N)=O)C(N)=O)[C@@H](C)CC)[C@@H](C)CC)[C@@H](C)O)[C@@H](C)O)C(C)C)C(C)C
[1]
  Activity: inactive
[2]
  MIC: 4 to 8 µg/mL (≈ 1.41 to 2.81 µM)
[3]
  Activity: Active
[4]
  Activity: Toxic
[5]
  Activity: Active
[6]
  MIC: 4 to 8 µg/mL (≈ 1.41 to 2.81 µM)
[7]
  MCC at 24 h: > 16 µg/mL
[8]
  MIC: 4 to 16 µg/mL (≈ 1.41 to 5.62 µM)
[9]
  Ratio: 0.15
[10]
  MCC at 24 h: > 16 µg/mL
[11]
  Activity: Toxic

## GENTAMICIN
[12]
  Ratio: 16

## COc1c(N2C[C@@H]3CCCN[C@@H]3C2)c(F)cc2c(=O)c(C(=O)O)cn(C3CC3)c12 [MOXIFLOXACIN]
[13]
  Activity: 3.7 log10CFU
